“Also recorded” adds a separate entry of the source. Strand notation (5' to 3'): a small letter for the sugar, then the base; units joined by * are phosphorothioate-linked, units joined directly phosphodiester-linked; [ ] holds rarer units or linkages, { } end groups; capitals alone tell only the bases. r = 2'-OH (RNA)
What was measured:
[1] = system: Human peripheral blood mononuclear cells (PBMCs); assay: Induced cytokine secretion by PBMCs (ELISA); assay type: cell-based; settings: for cytokine secretion when complexed to the CAL2 peptide: complexed to CAL2, versus the component on its own; for cytokine secretion, component on its own: individual component, 24 hours
Experimental: (§1) FIG. 10 is bar graph showing the induced secretion of IL-6 by PBMCs exposed to PolyIC, RNA248, DNA4, DNA10, PolyIC complexed with SEQ. ID NO. 36 (CAL2), RNA248 complexed with SEQ. ID NO. 36, DNA4 complexed with SEQ. ID NO. 36, DNA10 complexed with SEQ. ID NO. 36, DNA4 and RNA248 complexed with SEQ. ID NO. 36, Pam2CSK4-conjugated SEQ. ID NO. 36 complexed with DNA4 and SEQ. ID NO. 36 alone. Each well contained ˜300,000 fresh PBMCs in a total volume of 100 μL of RPMI medium. Solutions of SEQ. ID NO. 36, PolyIC, DNA4, DNA10, Pam2CSK4-conjugated SEQ. ID NO. 36 were all pre-mixed to concentrations of 50 ug/mL (for each peptide reagent) and then added to wells in volumes of 100 uL, such that each well contained a 200 uL volume of PBMCs and reagents. Wells were run in triplicate and the mean value is indicated.
as §1, with “FIG. 11” for “FIG. 10”, “of IL-10” for “of IL-6”
FIG. 12 is a bar graph showing the induced secretion of IL-12 by PBMCs exposed to PolyIC, RNA248, DNA4, DNA10, PolyIC complexed with SEQ. ID NO. 36 (CAL2), RNA248 complexed with SEQ. ID NO. 36, DNA4 complexed with SEQ. ID NO. 36, DNA10 complexed with SEQ. ID NO. 36, DNA4 and RNA248 complexed with SEQ. ID NO. 36, Pam2CSK4-conjugated SEQ. ID NO. 36 complexed with DNA4 and SEQ. ID NO. 36 alone. Each well contained ˜300,000 fresh PBMCs in a total volume of 100 μL of RPMI medium. Solutions of SEQ. ID NO. 36, PolyIC, DNA4, DNA10, Pam2CSK4-conjugated SEQ. ID NO. 36 were all pre-mixed to concentrations of 50 ug/mL (for each peptide reagent) and then added to wells in volumes of 100 uL, such that each well contained a 200 uL volume of PBMCs and reagents. Wells were run in triplicate and the mean value is indicated.
FIG. 13 is a bar graph showing the induced secretion of IL-15 by PBMCs exposed to PolyIC, RNA248, DNA4, DNA10, PolyIC complexed with SEQ. ID NO. 36 (CAL2), RNA248 complexed with SEQ. ID NO. 36, DNA4 complexed with SEQ. ID NO. 36, DNA10 complexed with SEQ. ID NO. 36, DNA4 and RNA248 complexed with SEQ. ID NO. 36, Pam2CSK4-conjugated SEQ. ID NO. 36 complexed with DNA4 and SEQ. ID NO. 36 alone. Each well contained ˜300,000 fresh PBMCs in a total volume of 100 μL of RPMI medium. Solutions of SEQ. ID NO. 36, PolyIC, DNA4, DNA10, Pam2CSK4-conjugated SEQ. ID NO. 36 were all pre-mixed to concentrations of 50 ug/mL (for each peptide reagent) and then added to wells in volumes of 100 uL, such that each well contained a 200 uL volume of PBMCs and reagents. Wells were run in triplicate and the mean value is indicated.
as §1, with “FIG. 14” for “FIG. 10”, “is a” for “is”, “of IFN-α” for “of IL-6”, “reagents. […]” for “reagents. Wells were run in triplicate and the mean value is indicated.”

DNA4/RNA248 = assay: MM complex stability by gel electrophoresis; assay type: physicochemical; settings: for complex formation with DNA4/RNA248: disappearance of free DNA4/RNA248 at sufficient peptide concentrations
Experimental: FIG. 9 is an image generated from a gel electrophoresis experiment (20 V/cm), whereby SEQ. ID NO. 36 (1 mg/mL) was mixed with DNA4/RNA248 (1 mg/mL) at ratios of 1:4 (Lane #2), 1:2 (Lane #3), 1:1 (Lane #4), 2:1 (Lane #5), and 4:1 (Lane #6) SEQ. ID NO. 36 to DNA4/RNA248. For reference, only DNA4/RNA248 was placed in Lane #1. The DNA4/RNA248 mixture travels in the gel away from the negative electrode (top) due its inherent negative charge.
Given the importance of forming stable complexes of antigenic cargo with immune-stimulatory molecules, the stability of MM was characterized using gel electrophoresis. MM were formed by mixing CAL2 (SEQ. ID NO. 36) with […] at varying ratios. […] The experiment was repeated for several other peptides, including SEQ. ID NOS. 34 and 42. […] Furthermore, the intensity of each band decreased as concentration of peptide increased. The presence of the linker sequence, RRHRKRR (SEQ. ID NO. 64), was determined to be critical for stable complexation. Separately, solutions of MM were tested after sitting at room temperature for 2 weeks yielding nearly identical results.

[2] = system: metastatic iodine-refractory differentiated thyroid cancer (DTC); settings: cited from earlier work
[3] = system: activated circulating CTLs; settings: PD-1+ and LAG-3+ gated flow cytometry; cited from earlier work
[4] = 25 μg/mL, 24 hours, 300,000 PBMCs per well

5′-TCGTCGGTTTCGGCGCGCGCCG-3′ (DNA, all phosphorothioate, methylation of C not given here; further chemistry not fully specified) [DNA4]
induced secretion of IL-12 [1, 4]: does not induce secretion
induced secretion of IL-15 [1, 4]: does not induce secretion
cytokine secretion when complexed to the CAL2 peptide [1]: marked increase
cytokine secretion, component on its own ([1]; 25 μg/mL): minimal

5′-TTCGGCGCGCGCGCGCGCGCGCCGTT-3′ (DNA, all phosphorothioate, methylation of C not given here; further chemistry not fully specified) [DNA10]
cytokine secretion when complexed to the CAL2 peptide [1]: marked increase
cytokine secretion, component on its own ([1]; 25 μg/mL): minimal

5′-guuggugguugugugagcgu-3′ (rG*rU*rU*rG*rG*rU*rG*rG*rU*rU*rG*rU*rG*rU*rG*rA*rG*rC*rG*rU) [RNA248]
cytokine secretion when complexed to the CAL2 peptide [1]: marked increase
cytokine secretion, component on its own ([1]; 25 μg/mL): minimal; also recorded: very minimal

34 (RRHRKRRLSTCMLGTYTQDFNKFHTFPQTAIRRHRKRR; targeting calcitonin) [compound 34]
complex formation with DNA4/RNA248 (DNA4/RNA248): stable complexes were formed

42 (RIPVKWTAIESLFDHRRHRKRR; targeting RETM918T) [compound 42]
complex formation with DNA4/RNA248 (DNA4/RNA248): stable complexes were formed

COc1cc2nccc(Oc3ccc(NC(=O)NC4CC4)c(Cl)c3)c2cc1C(N)=O [lenvatinib]
overall survival benefits [2]: marginal
progression free survival [2]: improved

CNC(=O)c1cc(Oc2ccc(NC(=O)Nc3ccc(Cl)c(C(F)(F)F)c3)cc2)ccn1 [sorafenib]
overall survival benefits [2]: marginal
progression free survival [2]: improved

RRHRKRRLSTCMLGTYTQDFNKFHTFPQTAI (targeting calcitonin) [SEQ. ID NO. 36]
nucleotide bands in gel (DNA4/RNA248; SEQ. ID NO. 36 to DNA4/RNA248 2:1 (Lane #5) and 4:1 (Lane #6), 20 V/cm, FIG. 9): no nucleotide bands are seen
free DNA4/RNA248 in gel (DNA4/RNA248; peptide to DNA4/RNA248 ratios exceeding 2:1, electric field of 20 V/cm): no free DNA4/RNA248 could be visualized
cytokine secretion, component on its own ([1]; 25 μg/mL): very minimal

B1: PEGylated IL-10: PEGylated IL-10 given to patients (protein, UniProt P22301 19-178, looked up)
Interleukin-10: SPGQGTQSENSCTHFPGNLPNMLRDLRDAFSRVKTFFQMKDQLDNLLLKESLLEDFKGYLGCQALSEMIQFYLEEVMPQAENQDPDIKAHVNSLGENLKTLRLRLRRCHRFLPCENKSKAVEQVKNAFNKLQEKGIYKAMSEFDIFINYIEAYMTMKIRN
modifications: PEGylated
numbers of activated circulating CTLs [3]: increased

— US20180161433A1, “SIZE TUNABLE MICROBIAL MIMETICS FOR IMMUNOTHERAPY OF THYROID CARCINOMAS AND SOLID TUMORS” (priority 2017, published 2018)
